Consider four compounds from ChEMBL document CHEMBL1201862, “PubChem BioAssay data set” (2004).

Activity calls are given as the source filed them.

In experiment [1] the target is T1, ATP-dependent translocase ABCB1 (Homo sapiens, UniProt P08183). Nature of the experiment: ABCG2 efflux pump inhibitor potency, dose response, Ig-MXP3 cells, JC-1, flow cytometry, set 2 (AID 504566).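 Also: flow cytometry median green fluorescence of retained JC-1 dye; potency of efflux pump inhibition measured as rising substrate retention.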 In kind it is functional. The conditions noted are these: read-out: EC50_MICROM_. A general note: A flow cytometer gives signals particle by particle.
For experiment [2], the target named is T1, ATP-dependent translocase ABCB1. Nature of the experiment: ABCB1 efflux inhibitor potency, dose response, Jurkat-DNR cells, JC-1, flow cytometry, set 2 (AID 504569).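 Also: potency of pump inhibitors that raise cellular JC-1 green fluorescence up to the nicardipine level.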 It counts as functional. The following applies: read-out: EC50_MICROM_.
Experiment [3] concerns the target Genome polyprotein (dengue virus type 2, UniProt P29990). Kind of experiment: Dengue-2 NS5 methyltransferase inhibitors, primary screen, biochemical, confirmation dose response (AID 588689). In kind it is functional.
In experiment [4] the target is T2, Probable nicotinate-nucleotide adenylyltransferase (Staphylococcus aureus (strain N315), UniProt P65502). In kind it is functional, Staphylococcus aureus subsp. aureus N315. The conditions noted are these: read-out: IC50_Mean.
The target of experiment [5] is T2, Probable nicotinate-nucleotide adenylyltransferase. In kind it is functional, Staphylococcus aureus subsp. aureus N315.
The target of experiment [6] is T3, Tyrosine-protein phosphatase non-receptor type 22 (Homo sapiens, UniProt Q9Y2R2).
T3 sequence (Q9Y2R2 whole entry): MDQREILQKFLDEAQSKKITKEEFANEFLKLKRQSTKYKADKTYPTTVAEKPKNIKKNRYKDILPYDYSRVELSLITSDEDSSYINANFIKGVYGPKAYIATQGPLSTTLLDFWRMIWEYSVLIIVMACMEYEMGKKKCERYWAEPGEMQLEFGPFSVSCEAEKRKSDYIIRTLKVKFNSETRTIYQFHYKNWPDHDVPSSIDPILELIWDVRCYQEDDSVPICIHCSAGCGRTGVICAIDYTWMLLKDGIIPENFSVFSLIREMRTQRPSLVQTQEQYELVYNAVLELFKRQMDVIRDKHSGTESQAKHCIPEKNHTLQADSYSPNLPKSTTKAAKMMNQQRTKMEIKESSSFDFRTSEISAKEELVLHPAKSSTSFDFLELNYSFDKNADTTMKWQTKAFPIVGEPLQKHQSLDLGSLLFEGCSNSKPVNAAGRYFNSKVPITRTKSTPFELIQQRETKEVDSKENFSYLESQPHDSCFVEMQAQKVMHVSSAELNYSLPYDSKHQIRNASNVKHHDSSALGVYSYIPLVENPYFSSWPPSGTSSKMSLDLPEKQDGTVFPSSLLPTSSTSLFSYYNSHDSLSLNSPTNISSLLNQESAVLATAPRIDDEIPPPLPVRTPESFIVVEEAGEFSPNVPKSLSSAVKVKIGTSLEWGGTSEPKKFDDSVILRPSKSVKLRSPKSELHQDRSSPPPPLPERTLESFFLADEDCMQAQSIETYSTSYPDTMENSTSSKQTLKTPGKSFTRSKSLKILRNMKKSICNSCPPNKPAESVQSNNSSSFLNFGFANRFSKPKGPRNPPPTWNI
Nature of the experiment: LYP phosphatase inhibition for selectivity, dose response, selectivity assay for LMPTP inhibitor project, biochemical, fluorescence, LYP catalytic domain (AID 652006). In kind it is functional. The following applies: read-out: IC50_Mean.

In experiment [7] the target is T4, Carboxy-terminal domain RNA polymerase II polypeptide A small phosphatase 1 (Homo sapiens, UniProt Q9GZU7).
T4 sequence (Q9GZU7 whole entry): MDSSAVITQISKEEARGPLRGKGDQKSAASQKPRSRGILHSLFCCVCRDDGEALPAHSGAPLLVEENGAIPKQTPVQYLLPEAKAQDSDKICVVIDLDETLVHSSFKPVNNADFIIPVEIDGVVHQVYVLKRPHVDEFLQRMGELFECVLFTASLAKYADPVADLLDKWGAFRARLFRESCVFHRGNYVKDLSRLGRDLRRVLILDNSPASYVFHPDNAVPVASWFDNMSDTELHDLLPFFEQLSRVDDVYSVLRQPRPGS
Nature of the experiment: inhibitors of CTDSP1, concentration-response testing, biochemical assay, absorbance-based, actives from ultra-high-throughput screening (AID 540297). It counts as functional.

The target of experiment [8] is T5, Voltage-gated N-type calcium channel alpha-1B subunit/Amyloid beta A4 precursor protein-binding family A member 1 (Homo sapiens, UniProt Q00975+Q02410). In kind it is protein assay.
For experiment [9], the target named is T6, Low molecular weight phosphotyrosine protein phosphatase (Homo sapiens, UniProt P24666).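 Also: Dose-response confirmation assay measuring inhibition of LMPTP enzyme activity by fluorescence intensity read-out.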
T6 sequence (P24666 whole entry): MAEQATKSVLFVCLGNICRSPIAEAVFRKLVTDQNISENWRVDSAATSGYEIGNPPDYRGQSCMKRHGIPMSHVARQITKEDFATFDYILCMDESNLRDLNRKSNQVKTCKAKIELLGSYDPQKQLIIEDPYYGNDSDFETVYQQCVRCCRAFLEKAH
In kind it is functional. The conditions noted are these: read-out: IC50_Mean.

Experiment [10] concerns the target T5, Voltage-gated N-type calcium channel alpha-1B subunit/Amyloid beta A4 precursor protein-binding family A member 1. In kind it is protein assay. The source holds these as a separate data set.
Experiment [11] concerns the target T7, DNA repair and recombination protein RAD54-like (Homo sapiens, UniProt Q92698).
T7 sequence (Q92698 whole entry): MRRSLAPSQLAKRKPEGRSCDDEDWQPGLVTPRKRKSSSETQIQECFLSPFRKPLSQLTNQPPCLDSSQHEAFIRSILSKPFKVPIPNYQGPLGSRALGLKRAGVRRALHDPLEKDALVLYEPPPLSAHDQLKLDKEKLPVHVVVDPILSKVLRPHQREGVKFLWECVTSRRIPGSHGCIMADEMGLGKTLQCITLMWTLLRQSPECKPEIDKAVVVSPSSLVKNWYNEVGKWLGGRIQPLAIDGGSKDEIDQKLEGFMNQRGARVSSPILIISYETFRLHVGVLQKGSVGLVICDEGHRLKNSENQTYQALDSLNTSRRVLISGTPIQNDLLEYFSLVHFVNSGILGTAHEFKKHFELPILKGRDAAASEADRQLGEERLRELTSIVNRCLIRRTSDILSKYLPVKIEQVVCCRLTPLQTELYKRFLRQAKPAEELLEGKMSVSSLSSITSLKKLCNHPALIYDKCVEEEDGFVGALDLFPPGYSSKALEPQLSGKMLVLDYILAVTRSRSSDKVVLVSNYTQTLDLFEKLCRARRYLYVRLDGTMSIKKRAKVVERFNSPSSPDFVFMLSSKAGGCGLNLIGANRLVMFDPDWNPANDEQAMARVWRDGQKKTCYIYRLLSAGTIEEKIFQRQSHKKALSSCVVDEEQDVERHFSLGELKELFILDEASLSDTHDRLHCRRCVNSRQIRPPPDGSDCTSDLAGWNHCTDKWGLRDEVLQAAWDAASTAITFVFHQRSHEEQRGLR
Nature of the experiment: inhibitors of human RAD54 branch migration, confirmation, biochemical, fluorescence, cherry-picked samples, dose series (AID 651657). In kind it is functional.

The nature of experiment [12]: MDA-MB-231 cell growth inhibition, dose response, cytotoxicity control for RAD54 inhibitor project, CellTiter-Glo luminescence, cherry-pick (AID 651692). It counts as functional, cell-based.
The target in experiment [13] is T8, DNA repair protein RAD52 homolog (Homo sapiens, UniProt P43351).
T8 sequence (P43351 whole entry): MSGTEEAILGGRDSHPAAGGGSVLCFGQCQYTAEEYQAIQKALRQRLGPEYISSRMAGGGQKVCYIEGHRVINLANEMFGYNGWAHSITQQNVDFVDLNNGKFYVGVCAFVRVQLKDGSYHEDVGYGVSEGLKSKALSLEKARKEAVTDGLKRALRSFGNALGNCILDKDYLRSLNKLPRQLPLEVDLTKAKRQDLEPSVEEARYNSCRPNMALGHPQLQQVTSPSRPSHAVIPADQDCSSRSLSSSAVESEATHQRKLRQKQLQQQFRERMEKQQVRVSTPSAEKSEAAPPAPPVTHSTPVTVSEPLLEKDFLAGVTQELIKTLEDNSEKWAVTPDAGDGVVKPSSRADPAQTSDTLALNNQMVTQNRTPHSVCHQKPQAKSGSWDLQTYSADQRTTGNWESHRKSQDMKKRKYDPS
In kind it is functional, biochemical.

For experiment [14], the target named is T9, Rac GTPase-activating protein 1 (Homo sapiens, UniProt Q9H0H5).
T9 sequence (Q9H0H5 whole entry): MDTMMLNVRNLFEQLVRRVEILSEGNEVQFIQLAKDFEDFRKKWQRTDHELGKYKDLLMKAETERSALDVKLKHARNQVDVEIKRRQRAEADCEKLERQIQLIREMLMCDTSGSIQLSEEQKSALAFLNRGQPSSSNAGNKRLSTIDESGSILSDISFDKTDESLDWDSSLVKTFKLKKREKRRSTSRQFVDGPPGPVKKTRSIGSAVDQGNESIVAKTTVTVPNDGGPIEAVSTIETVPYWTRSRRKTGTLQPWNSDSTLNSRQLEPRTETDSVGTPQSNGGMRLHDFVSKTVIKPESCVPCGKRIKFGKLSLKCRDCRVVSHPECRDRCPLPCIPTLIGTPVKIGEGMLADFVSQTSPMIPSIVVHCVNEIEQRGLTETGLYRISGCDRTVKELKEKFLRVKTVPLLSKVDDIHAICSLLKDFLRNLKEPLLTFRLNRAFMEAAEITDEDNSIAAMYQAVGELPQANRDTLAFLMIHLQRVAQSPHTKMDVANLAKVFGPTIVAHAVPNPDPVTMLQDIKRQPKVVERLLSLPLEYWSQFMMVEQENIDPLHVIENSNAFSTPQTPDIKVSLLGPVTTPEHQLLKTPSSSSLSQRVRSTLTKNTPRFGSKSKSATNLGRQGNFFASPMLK
Kind of experiment: MgcRacGAP GTPase-activating activity inhibitors, confirmation, biochemical, ADP Hunter fluorescence, primary and confirmatory (AID 624330). It counts as functional.

Experiment [15] has as its target T10, Histone-lysine N-methyltransferase NSD2 (Homo sapiens, UniProt O96028).
T10 sequence (O96028 whole entry): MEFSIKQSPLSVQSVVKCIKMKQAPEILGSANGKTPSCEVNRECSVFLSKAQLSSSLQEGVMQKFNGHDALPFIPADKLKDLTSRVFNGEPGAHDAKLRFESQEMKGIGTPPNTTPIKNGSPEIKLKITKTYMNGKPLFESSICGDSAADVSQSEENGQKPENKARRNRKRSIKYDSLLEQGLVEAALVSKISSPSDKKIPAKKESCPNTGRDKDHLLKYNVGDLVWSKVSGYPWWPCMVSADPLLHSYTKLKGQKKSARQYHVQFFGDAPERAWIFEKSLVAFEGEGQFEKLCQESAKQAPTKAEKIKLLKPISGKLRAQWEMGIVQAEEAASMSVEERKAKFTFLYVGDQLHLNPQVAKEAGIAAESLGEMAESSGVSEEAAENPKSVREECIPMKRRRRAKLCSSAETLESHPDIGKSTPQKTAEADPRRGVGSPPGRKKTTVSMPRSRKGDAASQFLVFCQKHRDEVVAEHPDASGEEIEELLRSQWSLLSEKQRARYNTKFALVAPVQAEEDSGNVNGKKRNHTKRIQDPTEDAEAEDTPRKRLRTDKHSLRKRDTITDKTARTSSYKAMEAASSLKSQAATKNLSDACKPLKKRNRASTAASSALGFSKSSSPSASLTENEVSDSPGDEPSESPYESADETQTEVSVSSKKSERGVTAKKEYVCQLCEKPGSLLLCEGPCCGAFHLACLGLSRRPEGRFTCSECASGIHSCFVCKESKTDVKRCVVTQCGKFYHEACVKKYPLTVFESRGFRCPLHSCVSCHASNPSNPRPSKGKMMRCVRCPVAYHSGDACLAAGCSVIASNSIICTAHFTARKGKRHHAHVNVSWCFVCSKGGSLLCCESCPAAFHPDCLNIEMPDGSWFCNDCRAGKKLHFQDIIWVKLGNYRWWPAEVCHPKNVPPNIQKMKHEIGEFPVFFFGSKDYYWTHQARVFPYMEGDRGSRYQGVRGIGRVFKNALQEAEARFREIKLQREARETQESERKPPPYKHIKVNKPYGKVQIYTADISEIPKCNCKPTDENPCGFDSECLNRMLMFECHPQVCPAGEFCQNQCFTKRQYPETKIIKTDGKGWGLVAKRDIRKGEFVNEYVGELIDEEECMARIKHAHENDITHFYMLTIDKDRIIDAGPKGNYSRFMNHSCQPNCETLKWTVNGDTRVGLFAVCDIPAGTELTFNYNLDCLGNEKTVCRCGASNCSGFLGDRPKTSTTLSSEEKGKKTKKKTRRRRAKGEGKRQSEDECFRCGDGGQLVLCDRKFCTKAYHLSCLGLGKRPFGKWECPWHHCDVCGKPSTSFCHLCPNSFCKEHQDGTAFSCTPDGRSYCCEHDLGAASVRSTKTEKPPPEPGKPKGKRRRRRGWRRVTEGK
In kind it is biochemical.

Experiment [16] deals with Hepatocyte nuclear factor 4-alpha (Homo sapiens, UniProt P41235). It counts as functional, cell-based.
A short description of experiment [17]: HeLa cell cytotoxicity, dose response, cytotoxicity control for MgcRacGAP inhibitor project (AID 624300). In kind it is functional.

T5 sequence (Q00975 whole entry): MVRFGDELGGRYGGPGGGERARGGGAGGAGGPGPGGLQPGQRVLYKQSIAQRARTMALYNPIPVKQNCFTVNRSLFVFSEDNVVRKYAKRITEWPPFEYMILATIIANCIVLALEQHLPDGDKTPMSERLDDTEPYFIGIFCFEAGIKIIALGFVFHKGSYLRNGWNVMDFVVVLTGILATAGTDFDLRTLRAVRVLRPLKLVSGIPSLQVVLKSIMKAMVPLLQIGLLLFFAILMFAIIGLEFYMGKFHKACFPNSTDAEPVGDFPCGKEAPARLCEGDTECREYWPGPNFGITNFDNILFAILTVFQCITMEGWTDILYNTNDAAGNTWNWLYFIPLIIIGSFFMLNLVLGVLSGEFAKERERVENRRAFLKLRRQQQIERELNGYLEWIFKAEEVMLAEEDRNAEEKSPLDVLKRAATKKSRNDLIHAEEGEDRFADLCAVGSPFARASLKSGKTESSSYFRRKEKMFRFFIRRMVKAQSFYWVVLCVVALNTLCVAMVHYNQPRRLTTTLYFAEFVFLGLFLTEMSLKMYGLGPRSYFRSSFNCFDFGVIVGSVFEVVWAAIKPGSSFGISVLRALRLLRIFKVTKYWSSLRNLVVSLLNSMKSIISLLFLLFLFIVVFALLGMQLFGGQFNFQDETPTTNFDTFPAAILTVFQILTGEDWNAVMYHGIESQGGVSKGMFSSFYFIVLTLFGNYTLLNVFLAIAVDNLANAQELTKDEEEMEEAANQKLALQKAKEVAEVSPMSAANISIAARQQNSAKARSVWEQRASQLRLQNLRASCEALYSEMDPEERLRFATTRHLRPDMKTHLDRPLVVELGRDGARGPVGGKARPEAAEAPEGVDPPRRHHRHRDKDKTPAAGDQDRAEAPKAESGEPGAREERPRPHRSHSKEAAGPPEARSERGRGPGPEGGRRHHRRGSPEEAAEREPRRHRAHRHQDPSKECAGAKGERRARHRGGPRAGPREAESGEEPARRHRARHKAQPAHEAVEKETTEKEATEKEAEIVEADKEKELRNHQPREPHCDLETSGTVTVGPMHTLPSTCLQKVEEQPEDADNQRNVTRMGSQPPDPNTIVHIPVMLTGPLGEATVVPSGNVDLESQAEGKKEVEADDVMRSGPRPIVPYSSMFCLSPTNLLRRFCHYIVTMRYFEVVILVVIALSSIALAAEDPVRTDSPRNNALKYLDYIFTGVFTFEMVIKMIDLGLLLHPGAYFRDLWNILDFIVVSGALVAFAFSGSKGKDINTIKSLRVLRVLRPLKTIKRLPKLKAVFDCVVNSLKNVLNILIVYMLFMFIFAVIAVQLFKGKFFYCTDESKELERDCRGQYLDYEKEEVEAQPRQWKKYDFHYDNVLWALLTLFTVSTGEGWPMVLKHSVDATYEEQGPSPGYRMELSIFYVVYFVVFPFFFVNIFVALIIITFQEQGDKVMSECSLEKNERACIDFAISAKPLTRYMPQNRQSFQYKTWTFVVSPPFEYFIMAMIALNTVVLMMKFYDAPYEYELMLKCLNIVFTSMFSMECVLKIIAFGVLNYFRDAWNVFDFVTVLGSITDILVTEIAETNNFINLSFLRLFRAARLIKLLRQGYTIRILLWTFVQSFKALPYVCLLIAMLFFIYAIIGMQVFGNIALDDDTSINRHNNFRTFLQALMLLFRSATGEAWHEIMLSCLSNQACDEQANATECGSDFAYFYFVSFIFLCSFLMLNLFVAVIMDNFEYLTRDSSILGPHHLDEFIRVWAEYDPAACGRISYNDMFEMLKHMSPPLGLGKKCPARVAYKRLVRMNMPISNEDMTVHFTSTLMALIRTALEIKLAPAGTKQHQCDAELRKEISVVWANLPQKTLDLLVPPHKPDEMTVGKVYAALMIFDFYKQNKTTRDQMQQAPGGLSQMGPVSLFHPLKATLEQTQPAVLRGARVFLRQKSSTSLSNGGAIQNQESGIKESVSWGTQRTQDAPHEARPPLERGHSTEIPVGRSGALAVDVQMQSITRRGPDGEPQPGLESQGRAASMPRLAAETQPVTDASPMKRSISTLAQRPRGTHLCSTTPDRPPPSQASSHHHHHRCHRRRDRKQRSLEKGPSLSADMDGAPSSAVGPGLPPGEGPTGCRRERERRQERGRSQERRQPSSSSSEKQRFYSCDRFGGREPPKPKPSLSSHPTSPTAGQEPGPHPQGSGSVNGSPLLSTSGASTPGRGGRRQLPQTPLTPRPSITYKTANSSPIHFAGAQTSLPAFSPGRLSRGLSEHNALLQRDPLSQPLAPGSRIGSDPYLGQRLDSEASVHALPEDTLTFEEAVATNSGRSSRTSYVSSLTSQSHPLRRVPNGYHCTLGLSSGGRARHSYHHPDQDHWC
T5 sequence (Q02410 whole entry): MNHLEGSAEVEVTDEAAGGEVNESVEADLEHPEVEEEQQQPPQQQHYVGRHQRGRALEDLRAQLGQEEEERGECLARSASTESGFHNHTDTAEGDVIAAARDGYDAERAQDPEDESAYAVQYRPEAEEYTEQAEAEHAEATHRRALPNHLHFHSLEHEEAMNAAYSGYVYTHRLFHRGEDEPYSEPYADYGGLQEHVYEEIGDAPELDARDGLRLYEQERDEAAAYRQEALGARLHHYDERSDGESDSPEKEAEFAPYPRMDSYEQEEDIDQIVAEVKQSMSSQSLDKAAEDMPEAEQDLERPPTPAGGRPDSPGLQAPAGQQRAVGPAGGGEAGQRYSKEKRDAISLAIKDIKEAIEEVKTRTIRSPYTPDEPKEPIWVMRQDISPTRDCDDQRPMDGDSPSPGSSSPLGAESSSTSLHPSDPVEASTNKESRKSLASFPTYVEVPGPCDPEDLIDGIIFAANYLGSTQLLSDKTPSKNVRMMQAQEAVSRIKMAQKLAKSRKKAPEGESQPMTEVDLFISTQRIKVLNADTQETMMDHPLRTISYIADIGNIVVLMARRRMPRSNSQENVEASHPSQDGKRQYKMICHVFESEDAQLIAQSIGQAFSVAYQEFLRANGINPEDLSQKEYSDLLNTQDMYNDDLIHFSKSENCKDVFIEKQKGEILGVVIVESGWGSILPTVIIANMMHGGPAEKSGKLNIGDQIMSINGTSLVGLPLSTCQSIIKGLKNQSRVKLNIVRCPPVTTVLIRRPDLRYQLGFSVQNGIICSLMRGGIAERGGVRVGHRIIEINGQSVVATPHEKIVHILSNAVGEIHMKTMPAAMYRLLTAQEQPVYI
T1 sequence (P08183 whole entry): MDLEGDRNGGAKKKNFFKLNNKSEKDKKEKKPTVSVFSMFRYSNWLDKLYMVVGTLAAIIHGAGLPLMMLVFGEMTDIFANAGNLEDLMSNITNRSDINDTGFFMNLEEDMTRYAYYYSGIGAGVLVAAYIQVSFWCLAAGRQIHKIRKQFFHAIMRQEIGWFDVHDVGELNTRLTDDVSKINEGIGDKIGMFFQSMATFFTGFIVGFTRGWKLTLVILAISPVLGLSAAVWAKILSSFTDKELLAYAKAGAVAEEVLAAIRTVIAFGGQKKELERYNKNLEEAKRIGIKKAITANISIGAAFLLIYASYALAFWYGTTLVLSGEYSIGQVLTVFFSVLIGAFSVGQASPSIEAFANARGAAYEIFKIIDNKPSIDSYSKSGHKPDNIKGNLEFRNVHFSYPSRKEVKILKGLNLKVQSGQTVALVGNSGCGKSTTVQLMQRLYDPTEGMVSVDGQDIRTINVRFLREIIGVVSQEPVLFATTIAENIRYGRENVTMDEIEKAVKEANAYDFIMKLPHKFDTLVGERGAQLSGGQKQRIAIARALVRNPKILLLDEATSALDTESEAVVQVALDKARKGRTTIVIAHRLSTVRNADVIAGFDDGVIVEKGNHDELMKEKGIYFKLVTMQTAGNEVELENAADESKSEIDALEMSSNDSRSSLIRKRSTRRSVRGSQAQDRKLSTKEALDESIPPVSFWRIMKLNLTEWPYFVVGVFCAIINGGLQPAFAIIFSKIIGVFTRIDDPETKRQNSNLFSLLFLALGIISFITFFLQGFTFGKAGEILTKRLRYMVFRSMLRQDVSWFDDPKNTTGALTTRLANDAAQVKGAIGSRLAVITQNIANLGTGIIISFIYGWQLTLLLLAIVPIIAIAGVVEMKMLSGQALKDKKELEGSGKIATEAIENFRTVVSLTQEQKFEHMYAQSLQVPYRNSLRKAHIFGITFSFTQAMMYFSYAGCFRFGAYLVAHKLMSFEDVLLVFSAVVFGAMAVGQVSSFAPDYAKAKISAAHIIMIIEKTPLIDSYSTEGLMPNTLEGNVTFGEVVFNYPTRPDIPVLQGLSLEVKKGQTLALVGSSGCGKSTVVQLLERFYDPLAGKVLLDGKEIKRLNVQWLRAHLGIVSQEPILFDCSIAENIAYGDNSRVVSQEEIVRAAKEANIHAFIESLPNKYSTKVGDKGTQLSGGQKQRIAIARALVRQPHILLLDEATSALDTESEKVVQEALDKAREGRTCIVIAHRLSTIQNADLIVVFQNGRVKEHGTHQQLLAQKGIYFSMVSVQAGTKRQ
T2 sequence (P65502 whole entry): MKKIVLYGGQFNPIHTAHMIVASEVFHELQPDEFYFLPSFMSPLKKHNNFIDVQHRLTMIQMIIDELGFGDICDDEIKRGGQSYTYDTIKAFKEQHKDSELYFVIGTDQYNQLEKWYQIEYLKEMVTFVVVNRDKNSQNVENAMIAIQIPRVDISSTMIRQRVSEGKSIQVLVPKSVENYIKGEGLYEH
Sequence of Hepatocyte nuclear factor 4-alpha (P41235 whole entry): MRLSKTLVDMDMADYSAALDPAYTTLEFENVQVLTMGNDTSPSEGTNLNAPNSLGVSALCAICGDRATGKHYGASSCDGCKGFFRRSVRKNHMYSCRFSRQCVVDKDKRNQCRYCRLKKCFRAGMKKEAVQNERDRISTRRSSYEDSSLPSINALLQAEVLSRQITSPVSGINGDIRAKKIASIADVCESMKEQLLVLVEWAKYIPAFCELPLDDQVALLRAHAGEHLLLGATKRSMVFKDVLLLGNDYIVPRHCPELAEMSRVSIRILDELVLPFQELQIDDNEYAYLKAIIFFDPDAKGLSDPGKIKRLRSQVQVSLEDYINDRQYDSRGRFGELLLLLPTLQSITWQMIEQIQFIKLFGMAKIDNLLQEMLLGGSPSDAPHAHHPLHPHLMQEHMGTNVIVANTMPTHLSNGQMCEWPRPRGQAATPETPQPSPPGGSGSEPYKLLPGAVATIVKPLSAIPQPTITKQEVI

For `COc1ccccc1C(=O)N1CCN(c2cc(-c3ccccc3)nc3cc(-c4cccc(Cl)c4)nn23)CC1`, the EC50 in [1] is 2.97 µM (active); in experiment [2], 4.13 µM (active).
Consider `Cc1ccc(NS(=O)(=O)c2ccc(N/N=C/c3ccccc3OCC(=O)O)c([N+](=O)[O-])c2)c(C)c1`, for which the IC50 is 43.9 µM (active) in experiment [3], 23.3 µM (active) in [4] and 6.32 µM (active) in experiment [5].
On to `NS(=O)(=O)c1ccc(CNC(=O)Cc2cccs2)cc1`, for which the IC50 is 56.1 µM (inactive) in experiment [6]; 4.18 µM (active) in experiment [7]; > 50 µM (inactive) in experiment [8]; 20.7 µM (inactive) in experiment [9]; 3.86 µM (active) in [10].
Broadly, the AC50 is the midpoint of the concentration-response curve, whichever way the signal moves. The term CC50 denotes the concentration that lowers cell viability or growth by half. For the compound `COc1cc(C)c2sc3ccccc3c(=O)c2c1NCCN(C)C`, the AC50 in experiment [11] was 2.7 µM (active); in experiment [12], 33.6 µM (active); in experiment [13], 1.07 µM (active); in experiment [15], 5.29 µM (active). For the same compound, the IC50 was 71.4 µM (active) in experiment [14] and 36.1 µM (inactive) in experiment [16]. For the same compound, the CC50 in experiment [17] was 53.3 µM (active).
